These results are taken from PMC8589628, “Characterization and Antimicrobial Studies of Iturin-Like and Bogorol-Like Lipopeptides From Brevibacillus spp. Strains GI9 and SKDU10” (Frontiers in Microbiology, 2021).

Peptide text beside a SMILES is read from it. * marks the point of attachment. X1 = CC(C)CCCCCCCCCCCCC(=O)*

One test concerns C. glabrata MTCC 3019. Kind of test: MIC, microtiter plate dilution assay. It is filed as cell-based. The note with it: YMB, 5 × 10^5 CFU/ml, 37°C, OD 600 nm after 48 h. On the procedure: (§1) The antimicrobial activity of HPLC purified compounds was determined against various test strains including S. aureus MTCC 1430, Vibrio cholera MTCC 3904, Bacillus subtilis MTCC 121, Listeria monocytogenes MTCC 839, C. albicans MTCC 183, C. albicans MTCC 1637, C. albicans MTCC 227, C. tropicalis MTCC 184, C. glabrata MTCC 3019, and C. inconspicua MTCC 1074. Antimicrobial activity was also tested against clinical Candida strains and phytopathogenic fungi viz. Fusarium moniliforme MTCC 158, Alternaria brassicicola MTCC 2102 and Colletotrichum acutatum MTCC 1037. Bacterial and Candida test strains were grown in NB and yeast malt broth (YMB), respectively. Fungal test strains were grown in potato dextrose broth (PDB). Minimum inhibitory concentrations (MICs) of purified compounds were evaluated against test organisms by using a microtiter plate dilution assay. Mid-log-phase test strains (5 × 10^5 CFU/ml) were incubated in a 96-well plate with different concentrations of the lipopeptides for 24–48 h at 37°C (final volume of 200 μl). OD was measured at 600 nm after 24 and 48 h for bacteria and yeast, respectively, using an ELISA microplate reader (Thermo Scientific, United States). MIC against phytopathogenic fungi was determined using the 96-well microtiter plate method ([Sharma et al., 2020]).

Another test has as its system C. haemulonii MTCC 2766. Kind of test: MIC, microtiter plate dilution assay. It is filed as cell-based. As to conditions: YMB, 5 × 10^5 CFU/ml, 37°C, OD 600 nm after 48 h. On the procedure: as §1
The next test relates to C. tropicalis MTCC 184. Kind of test: MIC, microtiter plate dilution assay. It is filed as cell-based. As to conditions: YMB, 5 × 10^5 CFU/ml, 37°C, OD 600 nm after 48 h. On the procedure:
as §1

Another test concerns C. inconspicua MTCC 1074. As to the kind of experiment: MIC, microtiter plate dilution assay. It is filed as cell-based. As to conditions: YMB, 5 × 10^5 CFU/ml, 37°C, OD 600 nm after 48 h. On the procedure: as §1
A further test relates to C. albicans MTCC 183. Kind of test: MIC, microtiter plate dilution assay. It is filed as cell-based, Candida albicans. As to conditions: YMB, 5 × 10^5 CFU/ml, 37°C, OD 600 nm after 48 h. On the procedure: as §1
In another test the test system is C. albicans MTCC 1637. As to the kind of experiment: MIC, microtiter plate dilution assay. It is filed as cell-based, Candida albicans. The note with it: YMB, 5 × 10^5 CFU/ml, 37°C, OD 600 nm after 48 h. On the procedure:
as §1

In another test the test system is C. albicans MTCC 227. Kind of test: MIC, microtiter plate dilution assay. It is filed as cell-based, Candida albicans. As to conditions: YMB, 5 × 10^5 CFU/ml, 37°C, OD 600 nm after 48 h. On the procedure:
as §1

A further test deals with C. albicans 400054. Kind of test: MIC, microtiter plate dilution assay, clinical strain. It is filed as cell-based, Candida albicans. As to conditions: YMB, 37°C, OD 600 nm after 48 h. On the procedure:
(§2) Brevibacillus sp. strains GI-9 and SKDU10 were known to produce class IId bacteriocins identified as laterosporulins a ([Singh et al., 2012]; [Baindara et al., 2016]). Both strains were grown on nutrient agar (NA, Himedia, India). All test strains used in this study were obtained from Microbial Type Culture Collection and Gene bank (MTCC), Chandigarh, India. Clinical Candida strains were obtained from the National Culture Collection of Pathogenic Fungi (NCCPF), PGIMER, Chandigarh, India, and all strains were grown on recommended media.
as §1

The next test relates to C. auris 470126. Described as above. It is filed as cell-based. As to conditions: YMB, 37°C, OD 600 nm after 48 h. On the procedure: as §2, §1
Another test has as its system C. haemulonii 470125. The description is as above. It is filed as cell-based. As to conditions: YMB, 37°C, OD 600 nm after 48 h. On the procedure:
as §2, §1

The next test concerns C. kefyr 410004. The test is described as above. It is filed as cell-based. The note with it: YMB, 37°C, OD 600 nm after 48 h. On the procedure:
as §2, §1

The next test relates to C. tropicalis 420024. The test is described as above. It is filed as cell-based. As to conditions: YMB, 37°C, OD 600 nm after 48 h. On the procedure: as §2, §1
The next test relates to C. krusei 440009. The test is described as above. It is filed as cell-based. The note with it: YMB, 37°C, OD 600 nm after 48 h. On the procedure:
as §2, §1

Another test deals with C. parapsilosis 450030. Described as above. It is filed as cell-based. As to conditions: YMB, 37°C, OD 600 nm after 48 h. On the procedure: as §2, §1
A further test deals with C. rugosa 470141. The description is as above. It is filed as cell-based. As to conditions: YMB, 37°C, OD 600 nm after 48 h. On the procedure: as §2, §1
In the next test the test system is C. acutatum MTCC1037. Kind of test: MIC against phytopathogenic fungi, 96-well microtiter plate method. It is filed as cell-based, Colletotrichum acutatum. As to conditions: PDB. On the procedure:
as §1

For the next test, the system named is F. moniliforme MTCC 158. The description is as above. It is filed as cell-based, Fusarium moniliforme. As to conditions: PDB. On the procedure:
as §1

The test system of test [1] is A. brassicicola MTCC 2102. Described as above. It is filed as cell-based, Alternaria brassicicola. The note with it: PDB. On the procedure: as §1
The subject of another test is S. aureus MTCC 1430. It is filed as cell-based, Staphylococcus aureus. The note with it: MTCC 1430, 24 h. On the procedure:
as §1

Turning to “Dhb-Tyr-Orn-Ile-Val-Val-Lys-Val-Leu-Asp-Val-Glu [BLL, bogorol like lipopeptide purified from Brevibacillus sp. strain SKDU10; 12 amino acids and C17 hydroxy fatty acid side chain]”, the MIC value against C. glabrata MTCC 3019 was in the range of 290 to 300 µg/mL; with C. haemulonii MTCC 2766, 340 to 360 µg/mL; against C. tropicalis MTCC 184 it was 290 to 310 µg/mL; against C. inconspicua MTCC 1074, 100 to 110 µg/mL; against C. albicans MTCC 183, 150 to 170 µg/mL; in the test with C. albicans MTCC 1637, 250 to 260 µg/mL. Further, the MIC value in the test on C. albicans MTCC 227 lay within 300 to 310 µg/mL; with C. albicans 400054 it was 240 to 260 µg/mL; against C. auris 470126, 140 to 160 µg/mL; with C. haemulonii 470125, 245 to 255 µg/mL; against C. kefyr 410004 it was 190 to 210 µg/mL; in the test on C. tropicalis 420024 it was 300 to 320 µg/mL. Besides, the MIC value against C. krusei 440009 was in the range of 240 to 250 µg/mL; against C. parapsilosis 450030 it was 290 to 310 µg/mL; in the test with C. rugosa 470141, 240 to 250 µg/mL; in the test on C. acutatum MTCC1037, 430 to 450 µg/mL; against F. moniliforme MTCC 158, 490 to 510 µg/mL; in [1] it was 500 to 520 µg/mL.

Compound `CC(C)CCCCCCCCCCCCC(=O)N[C@H](C(=O)NCC(=O)N[C@@H](C)C(=O)N[C@@H](CO)C(=O)N[C@@H](Cc1c[nH]cn1)C(=O)N[C@@H](CCC(N)=O)C(=O)N[C@@H](CCC(N)=O)C(=O)O)[C@@H](C)O` [ILL] (X1-TGASHQQ-OH; N-terminus assumed) yielded an MIC value with S. aureus MTCC 1430 of 150 to 170 µg/mL.
